# Measurements reported in article PMC12280724 (Frontiers in Pharmacology, 2025).
# Where “and” joins values, the source holds several entries; their conditions need not be identical. Identical values can stand only once. Marks after values point to notes of the source that are not given here.
# Assay: In vivo biodistribution of [^99mTc]Tc-carvedilol in healthy Swiss albino mice
# Settings: for [^99mTc]Tc-carvedilol percentages of injected dose per Gram organ: i.v. tail vein
# Excerpt: For biodistribution and receptor occupancy studies, 24 healthy adult Swiss albino mice (12 males and 12 females, aged 10–12 weeks, weighing 25–30 g) were obtained from the Egyptian National Research Center. Mice outside the 25–30 g weight range were excluded to ensure consistency in the biodistribution outcomes. Prior to the study, animals were housed in groups of four with ad libitum access to food and water and underwent a 2-week acclimatization period. After this adaptation phase, the mice were randomly assigned to the study groups using the lot-drawing method.
# Given ^99mTc’s physical half-life of approximately 6 h, shorter imaging and sampling intervals are generally preferred to maximize radioactive signal fidelity and minimize decay-related variability. At 24 h post-injection, the residual ^99mTc activity could fall below quantifiable thresholds, potentially compromising the precision of biodistribution data. To prevent this, all data collection was restricted to early post-injection intervals—specifically […]—when radioactivity levels remain within optimal detection ranges for gamma counting. By omitting the 24 h time point altogether, the study design ensured that the radiotracer signal would be robust enough to yield statistically reliable biodistribution profiles without being confounded by the isotope’s exponential decay. Additionally, prior pilot studies were conducted to empirically determine the time window during which the radiochemical integrity and quantification signal-to-noise ratio remained analytically valid. These informed the exclusion of late-phase sampling and reinforced confidence in the reliability of kinetic data collected within the defined 6 h observation window. Therefore, six mice were euthanized at each selected time point via standardized cervical dislocation performed by trained personnel in accordance with institutional animal care guidelines. The procedure followed the AVMA Guidelines for the Euthanasia of Animals ([Kirkwood, 2013]), ensuring it was rapid, humane, and reproducible. To ensure procedural consistency, all cervical dislocations were performed by the same experienced researcher, following pre-established protocols that involved correct animal positioning, anatomical landmark identification, and verification of death through cessation of heartbeat and respiration. Immediately postmortem, body weight was recorded, and blood was collected via cardiac puncture.
# Organ harvesting included the collection of the heart, liver, lungs, kidneys, spleen, stomach, intestines, muscle (right leg), bone, and brain. Following dissection, tissues were gently rinsed with isotonic saline to remove residual blood, promptly weighed, kept at low temperatures, and immediately subjected to gamma counting to preserve radiochemical integrity and avoid post-collection decay artifacts. No storage or freezing was used to prevent degradation or leakage of [^99mTc]Tc-carvedilol. Sample processing occurred in a shielded, on-site laboratory adjacent to the dissection area, ensuring minimal delay—typically less than 2 to 3 minutes—between collection and measurement.
# To ensure methodological rigor and reproducibility, both experimental and computational components of the study were supported by a structured statistical framework. A total of 24 healthy albino mice (12 males, 12 females), aged 10–12 weeks and weighing 25 ± 3 g, were selected based on uniform health status, age, and weight to minimize inter-animal variability. Animals were maintained under controlled laboratory conditions (12-h light/dark cycle, standardized humidity, and temperature) with unrestricted access to food and water. For biodistribution analysis, animals were randomly assigned to four experimental groups, each consisting of six mice, each representing a distinct post-injection time point (15, 30, 60, and 120 min). […]
structure (smiles),measurement,setting,value
COc1ccccc1OCC[N]1CC(COc2cccc3[nH]c4ccccc4c23)[O][99Tc]12(=[O])[O]C(COc1cccc3[nH]c4ccccc4c13)C[N]2CCOc1ccccc1OC (racemic) [[^99mTc]Tc-carvedilol],Residual [^99mTc]Tc-carvedilol percentages of injected dose per Gram in non-targeted organs,"Blood row, 30 min post-injection",96.021 ± 0.01 % ID/g
same,Residual [^99mTc]Tc-carvedilol percentages of injected dose per Gram in non-targeted organs,"Blood row, 60 min post-injection",92.710 ± 0.01 % ID/g
same,Residual [^99mTc]Tc-carvedilol percentages of injected dose per Gram in non-targeted organs,"Blood row, 120 min post-injection",94.008 ± 0.02 % ID/g
same,[^99mTc]Tc-carvedilol percentages of injected dose per Gram organ,"Blood, 15 min post-injection",19.895 ± 0.020 ^a % ID/g organ
same,[^99mTc]Tc-carvedilol percentages of injected dose per Gram organ,"Blood, 30 min post-injection",3.969 ± 0.052 % ID/g organ
same,[^99mTc]Tc-carvedilol percentages of injected dose per Gram organ,"Blood, 60 min post-injection",7.290 ± 0.052 % ID/g organ
same,[^99mTc]Tc-carvedilol percentages of injected dose per Gram organ,"Blood, 120 min post-injection",5.972 ± 0.131 % ID/g organ
same,[^99mTc]Tc-carvedilol percentages of injected dose per Gram organ,"Bone, 15 min post-injection",0.322 ± 0.035 % ID/g organ
same,[^99mTc]Tc-carvedilol percentages of injected dose per Gram organ,"Bone, 30 min post-injection",0.963 ± 0.215 % ID/g organ
same,[^99mTc]Tc-carvedilol percentages of injected dose per Gram organ,"Bone, 60 min post-injection",0.675 ± 0.215 % ID/g organ
same,[^99mTc]Tc-carvedilol percentages of injected dose per Gram organ,"Bone, 120 min post-injection",2.703 ± 0.019 % ID/g organ
same,Residual [^99mTc]Tc-carvedilol percentages of injected dose per Gram in non-targeted organs,"Brain row, 15 min post-injection",99.359 ± 0.01 % ID/g
same,Residual [^99mTc]Tc-carvedilol percentages of injected dose per Gram in non-targeted organs,"Brain row, 30 min post-injection",98.409 ± 0.03 % ID/g
same,Residual [^99mTc]Tc-carvedilol percentages of injected dose per Gram in non-targeted organs,"Brain row, 60 min post-injection",97.103 ± 0.01 % ID/g
same,Residual [^99mTc]Tc-carvedilol percentages of injected dose per Gram in non-targeted organs,"Brain row, 120 min post-injection",99.679 ± 0.02 % ID/g
same,[^99mTc]Tc-carvedilol percentages of injected dose per Gram organ,"Brain, 15 min post-injection",0.631 ± 0.020 % ID/g organ
same,[^99mTc]Tc-carvedilol percentages of injected dose per Gram organ,"Brain, 30 min post-injection",1.561 ± 0.008 % ID/g organ
same,[^99mTc]Tc-carvedilol percentages of injected dose per Gram organ,"Brain, 60 min post-injection",2.895 ± 0.391 % ID/g organ
same,[^99mTc]Tc-carvedilol percentages of injected dose per Gram organ,"Brain, 120 min post-injection",0.301 ± 0.110 % ID/g organ
same,Residual [^99mTc]Tc-carvedilol percentages of injected dose per Gram in non-targeted organs,"Heart row, 15 min post-injection",72.467 ± 0.02 ^a % ID/g
same,Residual [^99mTc]Tc-carvedilol percentages of injected dose per Gram in non-targeted organs,"Heart row, 30 min post-injection",92.707 ± 0.02 % ID/g
same,Residual [^99mTc]Tc-carvedilol percentages of injected dose per Gram in non-targeted organs,"Heart row, 60 min post-injection",97.838 ± 0.03 % ID/g
same,Residual [^99mTc]Tc-carvedilol percentages of injected dose per Gram in non-targeted organs,"Heart row, 120 min post-injection",96.414 ± 0.07 % ID/g
same,[^99mTc]Tc-carvedilol percentages of injected dose per Gram organ,"Heart, 15 min post-injection",27.533 % ID/g organ and 27.533 ± 0.931 % ID/g organ and 27.533 ± 0.931 ^a % ID/g organ
same,[^99mTc]Tc-carvedilol percentages of injected dose per Gram organ,"Heart, 30 min post-injection",7.273 ± 0.006 % ID/g organ
same,[^99mTc]Tc-carvedilol percentages of injected dose per Gram organ,"Heart, 60 min post-injection",2.161 ± 0.006 % ID/g organ
same,[^99mTc]Tc-carvedilol percentages of injected dose per Gram organ,"Heart, 120 min post-injection",3.516 ± 0.110 % ID/g organ
same,Residual [^99mTc]Tc-carvedilol percentages of injected dose per Gram in non-targeted organs,"Intestines row, 15 min post-injection",95.435 ± 0.09 % ID/g
same,Residual [^99mTc]Tc-carvedilol percentages of injected dose per Gram in non-targeted organs,"Intestines row, 30 min post-injection",96.612 ± 0.03 % ID/g
same,Residual [^99mTc]Tc-carvedilol percentages of injected dose per Gram in non-targeted organs,"Intestines row, 60 min post-injection",92.604 ± 0.04 % ID/g
same,Residual [^99mTc]Tc-carvedilol percentages of injected dose per Gram in non-targeted organs,"Intestines row, 120 min post-injection",94.643 ± 0.01 % ID/g
same,[^99mTc]Tc-carvedilol percentages of injected dose per Gram organ,"Intestines, 15 min post-injection",4.507 ± 0.521 % ID/g organ
same,[^99mTc]Tc-carvedilol percentages of injected dose per Gram organ,"Intestines, 30 min post-injection",3.358 ± 0.792 % ID/g organ
same,[^99mTc]Tc-carvedilol percentages of injected dose per Gram organ,"Intestines, 60 min post-injection",7.355 ± 0.792 % ID/g organ
same,[^99mTc]Tc-carvedilol percentages of injected dose per Gram organ,"Intestines, 120 min post-injection",5.347 ± 0.521 % ID/g organ
same,Residual [^99mTc]Tc-carvedilol percentages of injected dose per Gram in non-targeted organs,"Kidneys row, 30 min post-injection",67.207 ± 0.04 ^a % ID/g
same,Residual [^99mTc]Tc-carvedilol percentages of injected dose per Gram in non-targeted organs,"Kidneys row, 60 min post-injection",75.608 ± 0.01 % ID/g
same,Residual [^99mTc]Tc-carvedilol percentages of injected dose per Gram in non-targeted organs,"Kidneys row, 120 min post-injection",70.660 ± 0.05 % ID/g
same,[^99mTc]Tc-carvedilol percentages of injected dose per Gram organ,"Kidneys, 15 min post-injection",2.764 ± 0.012 % ID/g organ
same,[^99mTc]Tc-carvedilol percentages of injected dose per Gram organ,"Kidneys, 30 min post-injection",32.753 ± 0.345 % ID/g organ and 32.753 ± 0.345 ^a % ID/g organ
